From patent US11731982B2, “Biotin derivatives” (LIFE TECHNOLOGIES CORPORATION, priority 2010, dated 2023)

Experiments:
[1] = molecular target: T1, M-280 Streptavidin Dynabeads (streptavidin) (Streptomyces avidinii, UniProt P22629); assay: Fluorescent capture and release assay on M-280 Streptavidin Dynabeads; format: binding
T1 construct: purchased Invitrogen
Experimental: In order to evaluate the binding affinity and reversibility of N3′-ethyl biotin with streptavidin, a simple fluorescent binding and release assay was designed. Briefly, N3′-ethyl biotin-AF488 conjugate 117 was incubated with M-280 Streptavidin Dynabeads in pH 7.4 PBS buffer. After 25 min incubation at room temperature, the magnetic beads were separated from the supernatant, which was used to measure the capture efficiency, by measuring the fluorescent intensity of the supernatant solution to determine the amount that was not captured. Then, the N3′-ethyl biotin 117 bound magnetic beads were washed with PBS buffer to remove weak or non-specific binding. The reversibility was tested by incubating the N3′-ethyl biotin 117 bound magnetic beads with 2 mM biotin in PBS buffer at room temperature for 5 min, then the magnetic beads were concentrated by a magnet, and the fluorescent intensity in the solution was measured to determine the amount that was released. As a control, biocytin-AF488 conjugate was also tested in the same assay format.
The details of fluorescent capture and release assay were as follows. 100 μL of M280 Streptavidin Dynabeads (10 mg/mL, Invitrogen) was transferred to a 1.5 mL centrifuge tube, and washed with 500 μL PBS three times. […]

[2] = molecular target: T2, streptavidin (Streptomyces avidinii, UniProt P22629); assay: Kinetic measurement of rate constants, label-free ForteBio system, N3′-ethyl biotin immobilized on sensor tips; format: binding
T2 construct: purchased ForteBio
T2 sequence (P22629 25-183): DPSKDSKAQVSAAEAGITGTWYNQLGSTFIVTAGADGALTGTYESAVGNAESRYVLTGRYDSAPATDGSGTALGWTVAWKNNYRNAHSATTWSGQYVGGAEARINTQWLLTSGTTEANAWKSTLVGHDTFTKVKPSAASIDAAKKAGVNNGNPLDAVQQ
Experimental: The binding constant and on-and-off rate constant of N3′-ethyl biotin with streptavidin were tested using a label-free ForteBio system. The N3′-ethyl biotin 117 was covalently immobilized to amine reactive sensor tips from ForteBio. To generate the association curve, the N3′-ethyl biotin labeled biosensor tips were incubated with streptavidin at 25° C. The dissociation curve was determined by incubating the streptavidin bound sensor tips in PBS buffer described above, as well as in PBS buffer containing 2 mM biotin at 25° C. […] The dissociation constant kD of N3′-ethyl biotin is about 0.8 nM.
The details of fluorescent capture and release assay were follows. All interaction analyses were conducted at 25° C. in kinetic buffer (PBS, 0.1% BSA, 0.05% Tween-20, pH 7.2). The amine reactive biosensor tips from ForteBio were prewet for 20 min in water prior to use. The prepared samples and buffers were added to a 96-well microplate at 200 μL per well according the following sample layout, and the entire 96-well plate was agitated at 1000 rpm. Eight biosensor tips were performed the kinetic assay in parallel. Each amine reactive biosensor tip was equilibrated in MES buffer for 5 min, then activated with EDC/NHS for 5 min. The activated biosensor tip was labeled with 2 mM N3′-ethyl biotin 117 for 10 min, then quenched with 1 M ethanolamine for 5 min. The N3′-ethyl biotin 117 immobilized biosensor tip was incubated in kinetic buffer for 5 min to generate baseline, then incubated with 2 μg/mL streptavidin in kinetic buffer or kinetic buffer (control) at 1000 rpm for 10 min to generate association curve, followed by incubation with kinetic buffer or 2 mM biotin in kinetic buffer at 1000 rpm for 10 min to generate dissociation curve. The ForteBio Data Analysis Octet software was used to process the curve by subtracting sample curve from reference curve, and the kinetic data was calculated by fitting curve.

[3] = Isolation of azido sugar containing glycoproteins from Jurkat cell lysate by click labeling and streptavidin agarose; settings: elution 1% SDS in H2O at 95° C. for 5 min
Experimental: In order to isolate azido sugar containing glycoproteins from cell mixture, the Jurkat cells were cultured in Ac4GlcNAz supplemented media for 24 h. In this culturing, Jurkat cells were cultured in 100 mL RPMI 1640 media supplemented with 10% FBS at two T175 tissue culture flasks. When cell density reached ˜10×10^6 cells/mL, 100 μL of Ac4GlcNAz (100 mM in DMSO) and DMSO (control) were added, respectively. The flasks were incubated at 37° C. humidified incubator with 5% CO2 for 24 h. After incubation, the Jurkat cells were collected by centrifugation at 600×g for 5 min, and washed with PBS five times. The cell pellet was suspended in PBS to adjust the cell density at 50×10^6 cells/mL, and transferred 1 mL each to 1.5 mL tube. The cells were collected again by centrifugation at 600×g for 5 min. Then, 1 mL of 0.5% SDS/PBS was added to each tube, and lysated by sonication. The cell lysate was prepared at ˜3 mg/mL in 0.5% SDS/PBS.
Cell lysate was incubated with N3′-ethyl biotin alkyne 118 or biotin alkyne in the presence of CuSO4, THPTA, and sodium ascorbate at room temperature as described below. N3′-Ethyl biotin alkyne 118 and biotin alkyne (Invitrogen) were used to perform parallel protein enrichment experiments. Biotin alkyne has the structure: […]

T1 sequence (P22629 25-183): as above

N[C@@H](CCCCNC(=O)CCCC[C@@H]1SC[C@@H]2NC(=O)N[C@@H]21)C(=O)O [Biocytin]
Capture efficiency ([1]; 0.2 μM in PBS pH 7.4, 25 min room temperature): 96 ± 2%
Release efficiency ([1]; 2 mM biotin in PBS, room temperature 5 min): <5%

CCN1C(=O)N[C@H]2CS[C@@H](CCCCC(=O)O)[C@H]21 [N3′-ethyl biotin]
off-rate koff in the presence of 1 mM bis-biotin competing reagent ([2]; 1 mM bis-biotin): ~5.8×10^−2 S^−1
on-rate kon with streptavidin ([2]; 25° C.): ~1.5×10^5 M^−1S^−1
off-rate koff in the presence of 2 mM biotin ([2]; 25° C., 2 mM biotin): ~5.8×10^−2 S^−1
Kd ([2]; 25° C., read-out: dissociation constant kD): ~0.8 nM

C#CCNC(=O)CCOCCOCCOCCOCCNC(=O)CCCC[C@@H]1SC[C@@H]2NC(=O)N[C@@H]21 [biotin alkyne]
quality of isolated proteins [3]: contaminated with streptavidin

Biotin
reversibility of streptavidin binding ([2]; in the presence of 1 mM bis-biotin competing reagent): almost irreversible
